The assay concerns the target SARS-CoV-2 3CLpro (Severe acute respiratory syndrome coronavirus 2, UniProt P0DTD1). Nature of the assay: biochemical. As to conditions: for inhibition at 5 µM: 4 h. The assay is classed as biochemical. Further details: Replicate_1 / Replicate_2 / mean / mean (LOPAC_screen_w_protease): unit not given here.
[1] abbreviates: sheet LOPAC_screen_w_protease, primary screen of LOPAC1280 at 5 µM with protease, mean of the two replicates, read-out: mean.
The mark [2] stands for this setting: sheet LOPAC_screen_w_protease, primary screen of LOPAC1280 at 5 µM with protease, replicate 1, read-out: Replicate_1.
[3] abbreviates: sheet LOPAC_screen_w_protease, primary screen of LOPAC1280 at 5 µM with protease, replicate 2, read-out: Replicate_2.
The mark [4] stands for this setting: LOPAC1280 primary screen with protease, 5 µM compound, replicate 1, read-out: Replicate_1 (LOPAC_screen_w_protease).
[5] abbreviates: LOPAC1280 primary screen with protease, 5 µM compound, replicate 2, read-out: Replicate_2 (LOPAC_screen_w_protease).
The mark [6] stands for this setting: LOPAC1280 primary screen with protease, 5 µM compound, mean of the two replicates.
[7] abbreviates: read-out: Replicate_1 (LOPAC screen with protease).
[8] abbreviates: read-out: Replicate_2 (LOPAC screen with protease).
The mark [9] stands for this setting: read-out: mean (LOPAC screen with protease).
[10] abbreviates: sheet LOPAC_screen_w_protease, LOPAC1280 primary screen at 5 µM, with protease, mean of the two replicates, read-out: mean.
The mark [11] stands for this setting: sheet LOPAC_screen_w_protease, LOPAC1280 primary screen at 5 µM, with protease, replicate 1, read-out: Replicate_1.
[12] abbreviates: sheet LOPAC_screen_w_protease, LOPAC1280 primary screen at 5 µM, with protease, replicate 2, read-out: Replicate_2.
Setting [13] is: sheet LOPAC_screen_w_protease, primary screen with protease, compound at 5 µM, mean of two replicates.
The mark [14] stands for this setting: sheet LOPAC_screen_w_protease, primary screen with protease, compound at 5 µM, replicate 1.
Where [15] appears, read: sheet LOPAC_screen_w_protease, primary screen with protease, compound at 5 µM, replicate 2.
Setting [16] is: LOPAC1280 primary screen with protease, 5 µM compound, mean of two replicates.
Where [17] appears, read: LOPAC1280 primary screen with protease, 5 µM compound, replicate 1.
Setting [18] is: LOPAC1280 primary screen with protease, 5 µM compound, replicate 2.
The mark [19] stands for this setting: sheet LOPAC_screen_w_protease, primary screen with protease, mean of two replicates.
[20] abbreviates: sheet LOPAC_screen_w_protease, primary screen with protease, replicate 1.
Where [21] appears, read: sheet LOPAC_screen_w_protease, primary screen with protease, replicate 2.
Where [22] appears, read: sheet LOPAC_screen_w_protease, primary screen with protease, compound at 5 µM, mean of two replicates, read-out: mean.
Where [23] appears, read: sheet LOPAC_screen_w_protease, primary screen with protease, compound at 5 µM, replicate 1, read-out: Replicate_1.
Where [24] appears, read: sheet LOPAC_screen_w_protease, primary screen with protease, compound at 5 µM, replicate 2, read-out: Replicate_2.

Structures are written as SMILES. Structures can show the parent of a compound that is named as a salt. Where two headings read alike, the source gives them in different places.

With `CC1=C(/C=C/C(C)=C/C=C/C(C)=C/C=C/C=C(C)/C=C/C=C(C)/C=C/C2=C(C)C(=O)[C@@H](O)CC2(C)C)C(C)(C)C[C@H](O)C1=O` [Astaxanthin], the inhibition at 5 µM is, setting by setting: under setting [1], 3.4%; under setting [2], 2.58%; under setting [3], 4.22%.
For `C[N+]1(C)[C@@H]2CC[C@H]1C[C@@H](OC(=O)C(CO)c1ccccc1)C2` (stereo partly drawn) [Atropine methyl bromide], the inhibition at 5 µM runs as follows: under setting [4], 2.3%; under setting [5], 1.25%. Further, under setting [6], the “mean (LOPAC_screen_w_protease)” value is on record as 1.779.
Turning to `C[N+]1(C)[C@@H]2CC[C@H]1C[C@@H](OC(=O)C(CO)c1ccccc1)C2` (stereo partly drawn) [Atropine methyl nitrate], the inhibition at 5 µM is -0.0687% (sheet LOPAC_screen_w_protease, primary screen with protease, 5 µM, mean of two replicates, read-out: mean); 0.687% (sheet LOPAC_screen_w_protease, primary screen with protease, 5 µM, replicate 1, read-out: Replicate_1); -0.825% (sheet LOPAC_screen_w_protease, primary screen with protease, 5 µM, replicate 2, read-out: Replicate_2).
Consider `O=C(O)C1=CC(=C(c2ccc(O)c(C(=O)O)c2)c2ccc(O)c(C(=O)O)c2)C=CC1=O` [Aurintricarboxylic acid, reference compound], for which the inhibition at 5 µM by setting is: under setting [7], 31.5%; under setting [8], 31.9%; under setting [9], 31.7%.
Consider `Cn1cnc([N+](=O)[O-])c1Sc1ncnc2nc[nH]c12` [Azathioprine], for which the “mean (LOPAC_screen_w_protease)” value worked out at 1.638. Also, the inhibition at 5 µM (read-out: Replicate_1 (LOPAC_screen_w_protease)) amounted to 1.71%. Under “read-out: Replicate_2 (LOPAC_screen_w_protease)”, the inhibition at 5 µM stood at 1.57%.
Take `O=C(O)CCCCCCCC(=O)O` [Azelaic acid]: the inhibition at 5 µM is 0.767% under setting [10], 1.56% under setting [11] and -0.0221% under setting [12].
`CCN1CCc2nc(N)oc2CC1.Cl.Cl` [B-HT 933 dihydrochloride] returned a mean under setting [13] of 2.82. Besides, the Replicate_1 under setting [14] is reported as 2.163. The Replicate_2 under setting [15] came to 3.476.
The like results for `COc1ccccc1N1CCN(CCN2C(=O)CC3(CCCC3)CC2=O)CC1.Cl.Cl` [BMY 7378 dihydrochloride] were, in that order, 2.822, 2.1144 and 3.53.
As for `COc1ccccc1N1CCN(CCCCNC(=O)c2ccc3ccccc3c2)CC1` [BP 897], the inhibition at 5 µM amounted to 0.668% under setting [4] and 1.98% under setting [5]. Besides, the “mean (LOPAC_screen_w_protease)” value under setting [16] was 1.323.
With `OC(CN1CCN(c2cccc(Cl)c2)CC1)C(c1ccccc1)c1ccccc1` (stereo not drawn) [BRL 15572], the “mean (LOPAC_screen_w_protease)” value under setting [6] came out at 1.912. Besides, the “Replicate_1 (LOPAC_screen_w_protease)” value under setting [17] was 0.6201. Further, the “Replicate_2 (LOPAC_screen_w_protease)” value under setting [18] is listed as 3.204.
Turning to `C[C@H](Cc1ccc(OCC(=O)[O-])cc1)NC[C@H](O)c1cccc(Cl)c1.[Na+]` [BRL 37344 sodium], under setting [19], the mean is given as 2.226. Moreover, the Replicate_1 under setting [20] came to 0.8642. Moreover, the Replicate_2 under setting [21] is 3.588.
For `Cc1ccc([N+](=O)[O-])cc1S(=O)(=O)N(C)C` [BRL 50481], the “mean (LOPAC_screen_w_protease)” value under setting [16] is reported as 1.647. Further, the “Replicate_1 (LOPAC_screen_w_protease)” value under setting [17] turned out to be 1.025. The “Replicate_2 (LOPAC_screen_w_protease)” value under setting [18] is 2.268.
The like results for `Cl.O=C(Cc1ccc(Cl)c(Cl)c1)N1CCCCC1CN1CCCC1` (stereo not drawn) [BRL 52537 hydrochloride] were, in that order, 1.672, 2.192 and 1.152.
Compound `CN1CCC(c2c[nH]c3ccc(O)cc23)CC1.O=C(O)/C=C\C(=O)O` [BRL 54443 maleate] gave a mean under setting [19] of 2.426. Further, under setting [20], the Replicate_1 stood at 0.4828. The compound also returned a Replicate_2 under setting [21] of 4.37.
For `Cl.c1ccc2sc(C3(N4CCCCC4)CCCCC3)cc2c1` [BTCP hydrochloride], the “mean (LOPAC_screen_w_protease)” value under setting [6] is recorded as 2.11. Also, the “Replicate_1 (LOPAC_screen_w_protease)” value under setting [17] is recorded as 1.768. Moreover, the “Replicate_2 (LOPAC_screen_w_protease)” value under setting [18] is given as 2.452.
`Cl.c1ccc2nc(C3=NCCN3)ccc2c1` [BU224 hydrochloride]: under setting [16], the “mean (LOPAC_screen_w_protease)” value is 1.603. In addition, the “Replicate_1 (LOPAC_screen_w_protease)” value under setting [17] was determined as 1.353. In addition, under setting [18], the “Replicate_2 (LOPAC_screen_w_protease)” value came to 1.8522.
The compound `S=C=Nc1ccc2oc(C3=NCCN3)cc2c1` [BU99006] gave a Replicate_1 of 4.032, a Replicate_2 of 1.831 and a mean of 2.931.
Regarding `O=C(O)CCCCCCC1C(=O)NC(=O)N1CCC(O)C1CCCCC1` (stereo not drawn) [BW 245C], the “Replicate_1 (LOPAC_screen_w_protease)” value was found to be 2.361, the “Replicate_2 (LOPAC_screen_w_protease)” value is given as 0.3585 and the “mean (LOPAC_screen_w_protease)” value is 1.3595.
`C=CC[N+](C)(C)c1ccc(CCC(=O)CCc2ccc([N+](C)(C)CC=C)cc2)cc1.[Br-].[Br-]` [BW 284c51] registered a Replicate_1 of 2.051, a Replicate_2 of 3.598 and a mean of 2.825.
For `CC(N)Cc1c[nH]c2ccc(OCc3cccs3)cc12` (stereo not drawn) [BW 723C86], in that order: 2.832, 3.4189 and 3.125.
Under setting [19], `CC(/C=C/c1cccc(Oc2ccc(F)cc2)c1)N(O)C(N)=O` (stereo not drawn) [BWB70C] gave a mean of 2.212. Under setting [20], this compound registered a Replicate_1 of 2.534. Under setting [21], this compound displayed a Replicate_2 of 1.889.
For the setting “sheet LOPAC_screen_w_protease, primary screen with protease, 5 µM, mean of two replicates”, `C[C@H]1C[C@H]2[C@@H]3CCC4=CC(=O)C=C[C@]4(C)[C@@]3(Cl)[C@@H](O)C[C@]2(C)[C@@]1(O)C(=O)CO` [Beclomethasone] yielded a mean of -0.1197. Moreover, the Replicate_1 (sheet LOPAC_screen_w_protease, primary screen with protease, 5 µM, replicate 1) is -0.1957. Besides, under “sheet LOPAC_screen_w_protease, primary screen with protease, 5 µM, replicate 2”, the Replicate_2 was -0.04382.
With `c1ccc2cc(-c3ncc[nH]3)ccc2c1` [Benazoline oxalate], the inhibition at 5 µM by setting is: under setting [1], 3.39%; under setting [2], 1.95%; under setting [3], 4.83%.
Regarding `COc1cccc(OC)c1OCCNCC1CSc2ccccc2O1` (stereo not drawn) [Benoxathian hydrochloride], the inhibition at 5 µM is, setting by setting: under setting [22], 2.7%; under setting [23], 1.96%; under setting [24], 3.44%.
Turning to `NC(=O)c1ccccc1` [Benzamide], the inhibition at 5 µM under setting [10] is 0.755%, the inhibition at 5 µM under setting [11] was determined as 1.21% and the inhibition at 5 µM under setting [12] came out at 0.297%.
On to `N=C(N)c1ccccc1` [Benzamidine hydrochloride], for which the inhibition at 5 µM (sheet LOPAC_screen_w_protease, primary screen with protease, mean of two replicates, read-out: mean) was found to be 2.38%; the inhibition at 5 µM (sheet LOPAC_screen_w_protease, primary screen with protease, replicate 1, read-out: Replicate_1) came to 1.49%; the inhibition at 5 µM (sheet LOPAC_screen_w_protease, primary screen with protease, replicate 2, read-out: Replicate_2) came to 3.28%.
As for `NC(=NCc1ccccc1)NC(=O)c1nc(Cl)c(N)nc1N` [Benzamil hydrochloride], the inhibition at 5 µM came to 1.66% under setting [4] and 1.83% under setting [5]. Besides, under setting [6], the “mean (LOPAC_screen_w_protease)” value was found to be 1.743.
Turning to `CN1[C@@H]2CC[C@H]1C[C@@H](OC(c1ccccc1)c1ccccc1)C2` [Benztropine mesylate], the inhibition at 5 µM runs as follows: under setting [22], 3.08%; under setting [23], 0.913%; under setting [24], 5.26%.
Take `CC(C)COCC(CN(Cc1ccccc1)c1ccccc1)N1CCCC1` (stereo not drawn) [Bepridil hydrochloride]: the inhibition at 5 µM was found to be 8.81% under setting [7], 7.08% under setting [8] and 7.94% under setting [9].
As for `CC(C)C[C@H](NC(=O)[C@@H](O)[C@H](N)Cc1ccccc1)C(=O)O` [Bestatin hydrochloride], the inhibition at 5 µM amounted to 1.1% under setting [4] and 3.15% under setting [5]. Also, the “mean (LOPAC_screen_w_protease)” value under setting [6] was 2.127.
Regarding `C[N+](C)(C)CC(=O)O` [Betaine hydrochloride], the inhibition at 5 µM reads like this: (sheet LOPAC_screen_w_protease, LOPAC1280 at 5 µM, mean of two replicates, read-out: mean) 1.07%; (sheet LOPAC_screen_w_protease, LOPAC1280 at 5 µM, replicate 1, read-out: Replicate_1) 0.144%; (sheet LOPAC_screen_w_protease, LOPAC1280 at 5 µM, replicate 2, read-out: Replicate_2) 1.99%.
Take `CC(C)NCC(O)COc1ccc(CCOCC2CC2)cc1` (stereo not drawn) [Betaxolol hydrochloride]: the inhibition at 5 µM (read-out: Replicate_1) amounted to 0.905%, the inhibition at 5 µM (read-out: Replicate_2) came out at 3.87% and the inhibition at 5 µM (read-out: mean) came out at 2.39%.

For the origin of these results see paper PMC7587356, “High-Throughput Screening for Inhibitors of the SARS-CoV-2 Protease Using a FRET-Biosensor” (Molecules, 2020).
